Values of other authors in patent publication US20240366601A1, “METHODS FOR TREATING TRAUMATIC BRAIN INJURY” (The Regents of the University of California, priority 2021, published 2024).

How the values were obtained:
[1] = molecular target: CDK4 (Homo sapiens, UniProt P11802); conditions: for CDK4; read-out: in vitro IC50 (nM) in cell-free assays
[2] = FDA-approved doses for cancer treatments; list continues over the following table lines

CDK4, sequence (P11802 whole entry): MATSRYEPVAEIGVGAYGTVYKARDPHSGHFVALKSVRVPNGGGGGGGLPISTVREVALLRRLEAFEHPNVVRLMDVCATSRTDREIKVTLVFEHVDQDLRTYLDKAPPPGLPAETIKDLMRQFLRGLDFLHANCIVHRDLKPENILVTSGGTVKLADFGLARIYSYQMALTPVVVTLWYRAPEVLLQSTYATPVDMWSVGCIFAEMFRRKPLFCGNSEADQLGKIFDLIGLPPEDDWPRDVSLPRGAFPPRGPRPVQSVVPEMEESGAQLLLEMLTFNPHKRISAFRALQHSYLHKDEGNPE
CDK4, sequence (P24385 whole entry partner): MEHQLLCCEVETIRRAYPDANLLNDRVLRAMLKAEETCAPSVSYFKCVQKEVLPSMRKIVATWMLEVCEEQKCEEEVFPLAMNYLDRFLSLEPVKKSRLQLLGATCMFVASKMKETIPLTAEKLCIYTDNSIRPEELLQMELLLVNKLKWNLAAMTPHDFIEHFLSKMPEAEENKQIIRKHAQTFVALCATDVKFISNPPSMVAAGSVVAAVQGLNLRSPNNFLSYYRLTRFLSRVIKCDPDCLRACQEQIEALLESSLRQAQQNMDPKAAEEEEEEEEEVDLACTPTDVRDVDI

| SMILES | IC50 [1] [nM] | Common Side effects at FDA-approved doses (Medline Plus) [2] |
| --- | --- | --- |
| CN1CCN(c2ccc(Nc3ncc4cc(C#N)c(=O)n(C5CCCC5)c4n3)cc2)CC1 [ON123300] | 3.9 |  |
| CCN1CCN(Cc2ccc(Nc3ncc(F)c(-c4cc(F)c5nc(C)n(C(C)C)c5c4)n3)nc2)CC1 [abemaciclib] |  | diarrhea, nausea, abdominal pain, infections, tiredness, anemia, leukopenia, |
| CN(C)C(=O)c1cc2cnc(Nc3ccc(N4CCNCC4)cn3)nc2n1C1CCCC1 [ribociclib] |  | diarrhea; constipation; stomach pain; headache; hair loss; back pain; itching; |
